Laboratory results taken from patent US6479510B2, “Quinuclidine-substituted aryl compounds for treatment of disease” (Pharmacia & Upjohn Company, priority 2000, dated 2002).
Counter-ions that a name gives are not always drawn.

Molecular target: α7 nAChR (Rattus norvegicus, UniProt Q05941)
Assay: [3H]-MLA competition binding assay in rat brain membranes
Conditions: not given
Source text: Materials and Methods for identifying binding constants: […]

Chain of α7 nAChR (Q05941 23-502): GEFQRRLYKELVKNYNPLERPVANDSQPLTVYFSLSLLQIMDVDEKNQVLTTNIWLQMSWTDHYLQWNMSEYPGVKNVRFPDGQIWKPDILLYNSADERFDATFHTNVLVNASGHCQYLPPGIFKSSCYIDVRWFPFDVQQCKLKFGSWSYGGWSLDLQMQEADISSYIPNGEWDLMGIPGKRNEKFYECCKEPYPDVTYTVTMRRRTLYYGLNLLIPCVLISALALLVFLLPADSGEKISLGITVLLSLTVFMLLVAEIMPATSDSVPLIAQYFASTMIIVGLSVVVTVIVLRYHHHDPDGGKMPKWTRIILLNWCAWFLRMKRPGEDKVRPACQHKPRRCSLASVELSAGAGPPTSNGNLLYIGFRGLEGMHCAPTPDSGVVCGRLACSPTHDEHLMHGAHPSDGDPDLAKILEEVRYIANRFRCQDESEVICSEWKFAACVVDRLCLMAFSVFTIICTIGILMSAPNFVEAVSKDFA

Q: How did the Ki turn out when O=C(N[C@H]1CN2CCC1CC2)c1ccc(Oc2ccc(O)cc2)cc1 [Example 1, N-[(3R)-1-azabicyclo[2.2.2]oct-3-yl]-4-(4-hydroxyphenoxy)benzamide] was run?
A: 278 nM

Q: How did the Ki turn out when CC(=O)Nc1ccc(Oc2ccc(C(=O)N[C@H]3CN4CCC3CC4)cc2)cc1 [Example 2, N-[(3R)-1-azabicyclo[2.2.2]oct-3-yl]-4-(4-acetamidophenoxy)benzamide] was run?
A: 270 nM

Q: With O=C(N[C@H]1CN2CCC1CC2)c1ccc(Oc2ccccc2)cc1 [Example 3, N-[(3R)-1-azabicyclo[2.2.2]oct-3-yl]-4-phenoxybenzamide] as the compound, how does the Ki read?
A: 847 nM

Q: How did the Ki turn out when O=C(N[C@H]1CN2CCC1CC2)c1ccc(C(=O)c2ccccc2)cc1 [Example 7, N-[(3R)-1-azabicyclo[2.2.2]oct-3-yl]-4-benzoylbenzamide] was run?
A: 1580 nM

Q: With O=C(N[C@H]1CN2CCC1CC2)c1ccc(Oc2ccc(F)cc2)cc1 [Example 8, N-[(3R)-1-azabicyclo[2.2.2]oct-3-yl]-4-(4-fluorophenoxy)benzamide] as the compound, how does the Ki read?
A: 910 nM

Q: With O=C(N[C@H]1CN2CCC1CC2)c1ccc(Oc2cccc(Cl)c2)cc1 [Example 12, N-[(3R)-1-azabicyclo[2.2.2]oct-3-yl]-4-(3-chlorophenoxy)-benzamide] as the compound, how does the Ki read?
A: 1590 nM

Q: With O=C(N[C@H]1CN2CCC1CC2)c1ccc(Oc2ccc(Cl)cc2)cc1 [Example 13, N-[(3R)-1-azabicyclo[2.2.2]oct-3-yl]-4-(4-chlorophenoxy)-benzamide] as the compound, how does the Ki read?
A: 1240 nM

Q: How did the Ki turn out when COc1ccc(Oc2ccc(C(=O)N[C@H]3CN4CCC3CC4)cc2)cc1 [Example 16, N-[(3R)-1-azabicyclo[2.2.2]oct-3-yl]-4-(4-methoxyphenoxy)-benzamide] was run?
A: 414 nM

Q: How did the Ki turn out when O=C(N[C@H]1CN2CCC1CC2)c1ccc(Sc2cccc(Cl)c2)cc1 [Example 17, N-[(3R)-1-azabicyclo[2.2.2]oct-3-yl]-4-(3-chlorophenylsulfanyl)benzamide] was run?
A: 170 nM

Same assay, conditions: read-out: Ki

Q: How did the Ki turn out when COc1cccc(Oc2ccc(C(=O)N[C@H]3CN4CCC3CC4)cc2)c1 [Example 15, N-[(3R)-1-azabicyclo[2.2.2]oct-3-yl]-4-(3-methoxyphenoxy)-benzamide] was run?
A: 835 nM

Q: For CC1C(NC(=O)c2ccc(Oc3ccccc3)cc2)C2CCN1CC2 (centres unmarked) [Example 23, N-(2-methyl-1-azabicyclo[2.2.2]oct-3-yl)-4-phenoxybenzamide Fumarate], which Ki is on record?
A: 1660 to 1980 nM
